The source of these data is ChEMBL document CHEMBL1201862, “PubChem BioAssay data set” (2004).

Molecules are shown by their SMILES. The source made the active and inactive calls.

Assay [1] has as its target T1, Probable nicotinate-nucleotide adenylyltransferase (Staphylococcus aureus (strain N315), UniProt P65502). Type of assay: functional, Staphylococcus aureus subsp. aureus N315.
Assay [2] addresses T1, Probable nicotinate-nucleotide adenylyltransferase. The class given is functional, Staphylococcus aureus subsp. aureus N315. The following applies: read-out: IC50_Mean.
The next assay has as its system H4. Put plainly: Luminescence Cell-Based Dose Response HTS to Identify Activators of 5'UTR Stem-Loop Driven Prion Protein mRNA Translation in H4 Neuroglioblastoma Cells. [Related pubchem assays: 1829 (Project Summary), 1814 (Primary HTS)]. The class given is functional. The following applies: Homo sapiens.
In another assay the target is Phospholipase A2 (Homo sapiens, UniProt P04054). The class given is functional.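 Further: confirmatory dose-response counterscreen on phospholipase A2, testing hits that came from an ultra-high-throughput screen for ATG4B inhibitors.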
The nature of assay [3]: Luminescence Cell-Based Dose Confirmation HTS to Identify Activators of 5'UTR Stem-Loop Driven Alpha-Synuclein mRNA Translation in H4 Neuroglioblastoma Cells. [Related pubchem assays: 1829 (Project Summary), 1814 (Primary HTS)]. Type of assay: functional.
Assay [4] is described as follows: Luminescence Cell-Based Dose Response HTS to Identify Activators of Luciferase Translation or Activity in H4 […] Cells. [Related pubchem assays: 1829 (Project Summary), 1814 (Primary HTS)]. Type of assay: functional.
A further assay addresses T2, Cysteine protease ATG4B (Homo sapiens, UniProt Q9Y4P1).
T2 sequence (Q9Y4P1 whole entry): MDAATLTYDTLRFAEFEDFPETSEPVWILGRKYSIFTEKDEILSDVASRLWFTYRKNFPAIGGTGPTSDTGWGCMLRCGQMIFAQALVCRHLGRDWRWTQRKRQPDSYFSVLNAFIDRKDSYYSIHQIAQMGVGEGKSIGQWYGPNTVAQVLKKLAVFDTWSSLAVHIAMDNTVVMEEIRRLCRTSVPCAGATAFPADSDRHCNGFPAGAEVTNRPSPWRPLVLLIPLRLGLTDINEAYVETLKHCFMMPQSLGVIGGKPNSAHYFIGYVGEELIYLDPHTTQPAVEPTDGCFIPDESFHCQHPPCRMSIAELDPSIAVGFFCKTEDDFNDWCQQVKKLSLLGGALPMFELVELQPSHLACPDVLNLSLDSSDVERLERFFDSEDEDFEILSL
The class given is functional.

Assay [5] has as its target T3, Corticotropin-releasing factor receptor 2/Corticotropin-releasing factor-binding protein (Homo sapiens, UniProt P24387+Q13324).
T3 sequence (Q13324 whole entry): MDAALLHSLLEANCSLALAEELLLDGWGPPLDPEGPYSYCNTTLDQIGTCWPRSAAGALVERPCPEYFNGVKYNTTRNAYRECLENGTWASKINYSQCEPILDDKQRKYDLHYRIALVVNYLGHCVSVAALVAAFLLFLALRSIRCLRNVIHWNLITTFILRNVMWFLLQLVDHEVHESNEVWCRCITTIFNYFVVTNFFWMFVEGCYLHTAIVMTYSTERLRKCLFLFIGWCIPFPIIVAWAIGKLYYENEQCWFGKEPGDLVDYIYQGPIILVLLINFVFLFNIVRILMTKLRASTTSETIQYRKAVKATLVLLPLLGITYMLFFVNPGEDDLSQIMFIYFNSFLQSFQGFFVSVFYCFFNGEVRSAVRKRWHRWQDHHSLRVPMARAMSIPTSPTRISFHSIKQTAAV
T3 sequence (P24387 whole entry): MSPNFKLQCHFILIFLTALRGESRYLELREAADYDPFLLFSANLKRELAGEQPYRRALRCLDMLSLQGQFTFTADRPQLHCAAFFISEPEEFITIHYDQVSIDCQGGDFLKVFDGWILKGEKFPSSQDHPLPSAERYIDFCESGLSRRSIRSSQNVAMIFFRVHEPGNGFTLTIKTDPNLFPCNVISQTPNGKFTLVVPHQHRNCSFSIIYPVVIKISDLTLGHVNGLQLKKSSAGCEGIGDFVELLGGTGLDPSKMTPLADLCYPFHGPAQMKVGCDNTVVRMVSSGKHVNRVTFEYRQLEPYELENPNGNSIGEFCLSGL
Put plainly: activators of CRF receptor 2 with binding protein – uHTS hits, confirmation (AID 602473). Type of assay: functional. The following applies: read-out: EC50_Mean.

The target of assay [6] is T3, Corticotropin-releasing factor receptor 2/Corticotropin-releasing factor-binding protein. The experiment in a line: Dose Response confirmation of uHTS hits for small molecule antagonists of the CRF-binding protein and CRF-R2 receptor complex. The class given is functional. The note with it: read-out: IC50_Mean.
Assay [7] concerns the target Arf-GAP with SH3 domain, ANK repeat and PH domain-containing protein 1 (Homo sapiens, UniProt Q9ULH1). Type of assay: functional.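 Further: biochemical fluorescence polarization dose–response screen measuring inhibition of ASAP1; ASAP1 GAP domain stimulating GTP hydrolysis by truncated human ARF1.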
For assay [8], the target named is T4, DNA repair protein RAD52 homolog (Homo sapiens, UniProt P43351).
T4 sequence (P43351 whole entry): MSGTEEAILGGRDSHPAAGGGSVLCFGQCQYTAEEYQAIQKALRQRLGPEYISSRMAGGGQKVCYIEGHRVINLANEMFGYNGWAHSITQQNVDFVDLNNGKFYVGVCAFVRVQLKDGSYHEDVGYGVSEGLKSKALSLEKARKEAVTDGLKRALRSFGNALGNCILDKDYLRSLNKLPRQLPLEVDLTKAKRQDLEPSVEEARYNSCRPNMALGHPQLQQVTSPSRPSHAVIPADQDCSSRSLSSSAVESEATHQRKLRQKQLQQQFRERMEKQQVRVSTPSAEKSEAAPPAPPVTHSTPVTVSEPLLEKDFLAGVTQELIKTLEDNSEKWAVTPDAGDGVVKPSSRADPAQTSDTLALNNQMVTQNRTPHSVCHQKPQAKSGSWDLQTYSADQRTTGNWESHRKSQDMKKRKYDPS
Type of assay: functional, biochemical.

The target of assay [9] is T5, DNA repair and recombination protein RAD54-like (Homo sapiens, UniProt Q92698).
T5 sequence (Q92698 whole entry): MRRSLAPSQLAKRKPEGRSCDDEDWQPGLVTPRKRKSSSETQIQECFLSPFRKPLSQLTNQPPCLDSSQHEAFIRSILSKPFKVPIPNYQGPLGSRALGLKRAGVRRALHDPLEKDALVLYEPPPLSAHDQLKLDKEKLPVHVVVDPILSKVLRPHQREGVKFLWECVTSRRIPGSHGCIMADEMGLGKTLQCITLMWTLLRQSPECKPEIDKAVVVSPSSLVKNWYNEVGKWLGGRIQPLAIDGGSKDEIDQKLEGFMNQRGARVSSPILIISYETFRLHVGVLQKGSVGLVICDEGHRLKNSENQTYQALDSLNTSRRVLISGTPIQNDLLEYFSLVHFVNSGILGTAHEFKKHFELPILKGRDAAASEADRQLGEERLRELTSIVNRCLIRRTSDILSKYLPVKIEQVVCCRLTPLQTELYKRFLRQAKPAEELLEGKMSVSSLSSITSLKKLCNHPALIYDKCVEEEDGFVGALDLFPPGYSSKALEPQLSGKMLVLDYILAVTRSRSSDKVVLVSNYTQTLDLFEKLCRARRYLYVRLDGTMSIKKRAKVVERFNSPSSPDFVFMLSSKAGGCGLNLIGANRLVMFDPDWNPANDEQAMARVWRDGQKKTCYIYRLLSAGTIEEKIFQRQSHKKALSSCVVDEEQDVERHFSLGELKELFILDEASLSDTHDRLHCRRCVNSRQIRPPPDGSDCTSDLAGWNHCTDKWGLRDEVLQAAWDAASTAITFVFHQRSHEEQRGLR
The experiment in a line: inhibitors of human RAD54 branch migration, confirmation, biochemical, fluorescence, cherry-picked samples, dose series (AID 651657). The class given is functional.

Assay [10] concerns the target T6, Heat shock factor protein 1 (Mus musculus, UniProt P38532).
T6 sequence (P38532 whole entry): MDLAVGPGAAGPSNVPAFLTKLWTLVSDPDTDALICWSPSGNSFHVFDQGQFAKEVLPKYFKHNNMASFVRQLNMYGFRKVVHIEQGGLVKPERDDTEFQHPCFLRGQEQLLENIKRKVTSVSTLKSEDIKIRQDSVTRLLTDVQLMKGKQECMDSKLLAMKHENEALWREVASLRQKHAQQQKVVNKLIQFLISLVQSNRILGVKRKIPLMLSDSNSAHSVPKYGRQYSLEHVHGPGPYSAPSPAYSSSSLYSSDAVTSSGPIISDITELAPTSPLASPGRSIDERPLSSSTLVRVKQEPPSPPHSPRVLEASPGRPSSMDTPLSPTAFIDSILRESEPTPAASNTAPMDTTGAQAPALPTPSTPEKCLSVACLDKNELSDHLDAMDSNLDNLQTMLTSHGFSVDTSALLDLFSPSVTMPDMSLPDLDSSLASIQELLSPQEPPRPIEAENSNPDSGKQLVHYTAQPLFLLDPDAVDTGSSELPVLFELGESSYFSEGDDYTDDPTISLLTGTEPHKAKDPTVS
The experiment in a line: inhibition of MG132-induced HSE-luciferase signal, confirmation, cell-based, NIH3T3, luminescence, dose retest (AID 2382).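 Further: NIH3T3 fibroblasts with HSF1-driven luciferase reporter stressed by proteasome inhibitor MG132; luminescence from HSF1-driven luciferase expression after 8 hours of MG132 stress.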 Type of assay: functional.

A further assay deals with Protein Wnt-3a (Mus musculus, UniProt P27467). Put plainly: Wnt3a-driven reporter signaling inhibition, dose response, selectivity assay for Gli-SUFU antagonist project, Wnt-LIGHT cells, luminescence (AID 651570).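 Further: Wnt-LIGHT reporter cells stimulated with conditioned medium from Wnt3a-producing cells.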 The note with it: read-out: IC50_Mean. Type of assay: functional.
For assay [11], the target named is Heat shock protein HSP 90-alpha (Homo sapiens, UniProt P07900). The class given is functional, organism-based.
Assay [12] concerns the target T7, Rac GTPase-activating protein 1 (Homo sapiens, UniProt Q9H0H5).
T7 sequence (Q9H0H5 whole entry): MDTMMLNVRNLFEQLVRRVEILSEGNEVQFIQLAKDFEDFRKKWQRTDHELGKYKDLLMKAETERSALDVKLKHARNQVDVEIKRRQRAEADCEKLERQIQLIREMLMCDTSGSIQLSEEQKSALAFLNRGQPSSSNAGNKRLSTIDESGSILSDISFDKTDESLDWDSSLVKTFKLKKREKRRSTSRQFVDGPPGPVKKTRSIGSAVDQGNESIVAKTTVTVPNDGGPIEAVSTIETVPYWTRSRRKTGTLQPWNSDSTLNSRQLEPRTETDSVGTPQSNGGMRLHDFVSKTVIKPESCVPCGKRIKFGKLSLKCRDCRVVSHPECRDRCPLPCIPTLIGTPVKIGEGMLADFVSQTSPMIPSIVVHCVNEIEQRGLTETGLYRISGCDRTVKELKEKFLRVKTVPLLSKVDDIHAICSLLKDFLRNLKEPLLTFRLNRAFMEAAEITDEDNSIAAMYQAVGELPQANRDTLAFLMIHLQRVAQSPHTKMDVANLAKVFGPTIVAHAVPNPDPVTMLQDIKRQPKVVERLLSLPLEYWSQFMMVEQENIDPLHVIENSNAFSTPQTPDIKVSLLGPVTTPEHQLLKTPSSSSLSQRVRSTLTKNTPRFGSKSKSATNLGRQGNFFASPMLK
Put plainly: MgcRacGAP GTPase-activating activity inhibitors, confirmation, biochemical, ADP Hunter fluorescence, primary and confirmatory (AID 624330). Type of assay: functional.

Assay [13] can be described thus: Luminescence Cell-Based Dose Retest to Confirm Inhibitors of Cancer Stem Cells. [Related pubchem assays (depositor defined):AID2717, AID2721]. The class given is functional. The following applies: Homo sapiens.
Assay [14] is described as follows: cytotoxicity in HMLE control line with eGFP shRNA, dose response, counter-screen for HMLE_sh_ECad selective toxicity project, cell-based, HMLE_sh_eGFP, luminescence (AID 463074).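 Further: HMLE human mammary epithelial cells expressing control shRNA against eGFP.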 Type of assay: functional, Homo sapiens. Background: Counterscreens check selectivity or assay interference.

Phospholipase A2, sequence (P04054 whole entry): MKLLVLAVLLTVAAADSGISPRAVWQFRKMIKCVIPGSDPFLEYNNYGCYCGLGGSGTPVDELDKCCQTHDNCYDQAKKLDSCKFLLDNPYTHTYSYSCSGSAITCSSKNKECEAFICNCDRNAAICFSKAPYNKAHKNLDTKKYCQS
T1 sequence (P65502 whole entry): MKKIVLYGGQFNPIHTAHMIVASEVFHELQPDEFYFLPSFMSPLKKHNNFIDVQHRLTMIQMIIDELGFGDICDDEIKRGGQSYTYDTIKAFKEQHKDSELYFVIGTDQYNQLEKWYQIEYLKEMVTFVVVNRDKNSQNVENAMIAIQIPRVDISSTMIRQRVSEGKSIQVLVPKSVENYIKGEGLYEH
Arf-GAP with SH3 domain, ANK repeat and PH domain-containing protein 1, sequence (Q9ULH1 whole entry, the tested form may be a part): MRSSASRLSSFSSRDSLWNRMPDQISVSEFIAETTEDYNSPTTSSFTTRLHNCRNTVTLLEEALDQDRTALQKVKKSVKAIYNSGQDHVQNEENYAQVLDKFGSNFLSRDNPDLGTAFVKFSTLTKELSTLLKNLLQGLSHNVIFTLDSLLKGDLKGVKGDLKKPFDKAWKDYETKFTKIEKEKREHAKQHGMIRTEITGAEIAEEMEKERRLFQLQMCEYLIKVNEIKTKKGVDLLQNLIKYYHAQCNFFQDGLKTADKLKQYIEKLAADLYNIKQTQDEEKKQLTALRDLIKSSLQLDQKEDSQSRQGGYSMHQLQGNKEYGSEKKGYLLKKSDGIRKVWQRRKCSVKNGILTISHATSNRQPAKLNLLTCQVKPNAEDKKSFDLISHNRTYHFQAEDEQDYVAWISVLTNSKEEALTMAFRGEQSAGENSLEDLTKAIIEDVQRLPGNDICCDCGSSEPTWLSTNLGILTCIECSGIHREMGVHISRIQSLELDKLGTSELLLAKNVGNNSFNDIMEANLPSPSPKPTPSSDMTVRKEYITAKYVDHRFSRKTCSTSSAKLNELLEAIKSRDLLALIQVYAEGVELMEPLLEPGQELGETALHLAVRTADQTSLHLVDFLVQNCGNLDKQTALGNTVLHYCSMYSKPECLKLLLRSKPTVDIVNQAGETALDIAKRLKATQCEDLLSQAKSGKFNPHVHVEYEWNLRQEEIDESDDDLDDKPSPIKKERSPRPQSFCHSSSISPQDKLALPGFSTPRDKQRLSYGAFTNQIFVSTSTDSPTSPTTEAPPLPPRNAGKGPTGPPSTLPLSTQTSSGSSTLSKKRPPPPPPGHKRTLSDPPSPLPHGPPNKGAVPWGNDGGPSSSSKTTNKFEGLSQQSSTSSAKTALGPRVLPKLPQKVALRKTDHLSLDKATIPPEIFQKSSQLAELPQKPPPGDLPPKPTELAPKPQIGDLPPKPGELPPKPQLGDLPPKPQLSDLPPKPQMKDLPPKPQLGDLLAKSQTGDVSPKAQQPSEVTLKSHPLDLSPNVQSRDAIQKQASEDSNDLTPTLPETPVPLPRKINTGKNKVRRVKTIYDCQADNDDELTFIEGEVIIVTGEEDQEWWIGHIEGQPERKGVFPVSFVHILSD
Protein Wnt-3a, sequence (P27467 whole entry): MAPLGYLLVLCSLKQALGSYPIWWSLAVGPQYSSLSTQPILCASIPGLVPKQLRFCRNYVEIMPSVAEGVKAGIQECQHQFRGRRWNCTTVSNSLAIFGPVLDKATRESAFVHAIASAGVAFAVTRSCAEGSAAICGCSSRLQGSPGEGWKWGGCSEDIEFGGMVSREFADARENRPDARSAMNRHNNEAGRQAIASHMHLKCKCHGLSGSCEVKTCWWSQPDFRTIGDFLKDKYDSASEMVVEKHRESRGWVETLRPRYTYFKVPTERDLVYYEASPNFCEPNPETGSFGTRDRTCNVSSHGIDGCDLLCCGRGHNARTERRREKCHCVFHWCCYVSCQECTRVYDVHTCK

As to `CCOC(=O)c1ccccc1N1C(=O)C2Sc3nc(O)sc3C(/C=C/c3ccccc3)C2C1=O` (stereo not given), the results for the IC50 in assay [1] and in assay [2] were 12.2 µM (active) and 45.9 µM (active), respectively.
Turning to `O=C(NC(=S)NCCC1=CCCCC1)c1ccc(Br)o1`, the values for the EC50 (with H4; in assay [3]; in [4]) were 18.1 µM (active), 83 µM (active) and 15.1 µM (active), respectively. For the same compound, the IC50 at Phospholipase A2 is 9.44 µM (active); at Cysteine protease ATG4B, 15.9 µM (active).
Turning to `COc1ccc(-n2nnnc2SCC(=O)c2ccc(OC)c(OC)c2)cc1`, the EC50 in [5] was > 53 µM (inactive). In addition, the values for the IC50 in assay [6] and in assay [7] were > 47.1 µM (inactive) and 33 µM (inactive), respectively.
On to `CCN(CC)CCN1CCN(c2cncc(-c3cccc(N)c3)n2)CC1`, for which the AC50 in assay [8] is 1.56 µM (active); in assay [9], 100 µM (inactive).
With `O=C(O)c1cccc(CSc2nc(-c3ccc(Cl)cc3)cc(C(F)(F)F)n2)c1`, the IC50 at Phospholipase A2 was 11.4 µM (active); on Cysteine protease ATG4B, 12.8 µM (active).
Consider `COC(=O)c1cc(NC(=O)c2ccc(Cn3cc(Cl)cn3)o2)cc(C(=O)OC)c1`, for which the IC50 in assay [7] was 41 µM (inactive).
Take `O=C(NCCNc1ccnc2cc(Cl)ccc12)c1ccccc1F`: in assay [10], the EC50 is 39.7 µM (active). Further, at Protein Wnt-3a, the IC50 is 3.93 µM (active).
As to `CCN(CC)CCOc1c(Br)ccc2c1sc1nc3n(c(=O)c12)CCC3`, the AC50 in [9] was 8.15 µM (active).
Consider `O=C1C=CC(=O)N1c1ccc(Nc2ccccc2)cc1`, for which the AC50 in assay [11] is 1.85 µM (active). Also, the IC50 in assay [12] was 27 µM (active).
With `O=C(Nc1nnc(SCc2ccc(F)cc2)s1)C1Cc2ccccc2CN1C(=O)c1ccco1` (stereo not given), the IC50 is 13.4 µM (active) in [1] and 34 µM (active) in [2].
For `Cc1ccc(N2C(=O)CC(N(CCc3ccccc3)C(=S)Nc3ccc(N(C)C)cc3)C2=O)cc1` (stereo not given), the IC50 in assay [1] was 36.8 µM (active); in assay [2] it was 77.7 µM (active). Besides, the AC50 in [13] was 5.65 µM (active); in assay [14], 154 µM (active).
Turning to `O=C(Cn1cccc1C(=O)c1ccccc1)NCCC1=CCCCC1`, the results for the IC50 at Phospholipase A2 and on Cysteine protease ATG4B were 11.7 µM (active) and 20.1 µM (inactive), respectively.
On to `COc1ccc2c(c1)CCc1c(C(=O)N3CCc4ccccc4C3)noc1-2`, for which, in [11], the AC50 was 6.29 µM (active).
On to `CN1/C(=C\C=N\c2ccccc2)C(C)(C)c2ccccc21`, for which the IC50 on Protein Wnt-3a is 7.05 µM (active).

For orientation: AC50 means the concentration giving half of the maximal activity seen.
